According to PubChem BioAssay AID488770 (The Scripps Research Institute Molecular Screening Center, 2010):
Activity calls are given as the source filed them.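 How the source made its calls: active means IC50 at or below 10 µM; inactive means IC50 above 10 µM.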

molecular target: KH domain-containing RNA-binding protein QKI (Mus musculus) (UniProt Q9QYS9); test: blockers of quaking interaction with RNA – biochemical, fluorescence polarization, mouse QKI, powder samples, gld-1 inhibitor project, dose response (AID 488770); settings: 1536-well
Sequence (Q9QYS9 whole entry, looked up, the tested form may be a part): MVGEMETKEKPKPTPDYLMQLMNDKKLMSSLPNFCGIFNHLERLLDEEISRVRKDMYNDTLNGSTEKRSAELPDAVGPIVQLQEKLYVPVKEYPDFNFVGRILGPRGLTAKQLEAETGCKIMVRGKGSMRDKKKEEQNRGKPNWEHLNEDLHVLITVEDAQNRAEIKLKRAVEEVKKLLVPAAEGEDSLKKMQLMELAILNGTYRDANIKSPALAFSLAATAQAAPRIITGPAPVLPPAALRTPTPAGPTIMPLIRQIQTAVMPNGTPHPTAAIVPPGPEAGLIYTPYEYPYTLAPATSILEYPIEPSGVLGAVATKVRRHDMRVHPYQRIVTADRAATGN

| SMILES | IC50 |
| --- | --- |
| Cc1ccc(S(=O)(=O)Nc2cc3c(C(=O)Nc4ccccc4)c(C)oc3c3ccccc23)c(C)c1 | 0.419 µM |
| CCCCn1c(=O)[nH]c2nc3cc(NC(C)=O)ccc3nc2c1=O | 1.59 µM |
| CCN(CC)S(=O)(=O)c1ccc(N2CCCC2)c(NS(=O)(=O)c2ccc(F)cc2)c1 | 1.62 µM |
| O=C1C2=C(SCCS2)C(=O)N1CCCO | 2.24 µM |
| CCOC(=O)c1c(C)oc2c1cc(NS(=O)(=O)c1ccc(C)cc1)c1ccccc12 | > 59.6 µM (inactive) |
| Nc1ccc2nonc2c1[N+](=O)[O-] | > 59.6 µM (inactive) |
| Nc1c(O)ccc2c1C(=O)c1ccccc1C2=O | 2.53 µM |
| O=C(CN1C(=O)NC2(CCCCC2)C1=O)Oc1ccc2c(C(F)(F)F)cc(=O)oc2c1 | 2.13 µM |
| CC1=CC(=O)c2c(O)ccc(O)c2C1=O | 5.62 µM |
| COc1ccc(C=Nc2c(-c3ccco3)nc3ccccn23)cc1OC | inactive |
| Cc1ccc(S(=O)(=O)Nc2cc3c(C(=O)Nc4ccccc4)c(C)oc3c3ccccc23)cc1 | 0.262 µM |
| Nc1ccc(O)c2c1C(=O)c1ccccc1C2=O | 2.28 µM |
| O=c1[nH]c(=O)c2nc3ccccc3nc2[nH]1 | inactive |
| COc1ccc(/C=C(\CC(=O)O)c2nc3ccccc3s2)cc1O | 0.155 µM |
| O=c1[nH]c2cc3ccccc3cc2nc1C(F)(F)F | 1.17 µM |
